Test results reported in patent publication EP4549575A1 (priority 2023, dated 2025).
Values joined by “and” are separate entries in the source; they are usually repeats but may differ in a detail not shown here. Equal values may be shown once. Square brackets hold non-standard residues; d marks the D form. Peptide text beside a SMILES is read from it. βAla = NCCC(=O)O

How the values were obtained:
P. capsici = type: cell-based, Phytophthora capsici Leonian
P. ultimum = type: cell-based, Pythium ultimum var. ultimum Trow
[1] = Conformational studies based on circular dichroism; type: physicochemical
Description: Conformational studies based on circular dichroism were performed under different conditions, such as: • 10 mM phosphate buffer, pH 7 • MES buffer 10 mM, pH 6 • Buffer acetate 10 mM, pH 5 • Phosphate buffer 10 mM/TFE (1:1) • TFE (trifluoroethanol)
Conformational studies based on circular dichroism were performed under different conditions such as: • 10 mM phosphate buffer, pH7 • Phosphate buffer 10mM/TFE, pH7 (1:1) • TFE (trifluoroethanol)
Conformational studies based on circular dichroism were performed under different conditions, such as: • 10 mM phosphate buffer, pH7 • MES buffer 10 mM, pH6 • Buffer acetate 10 mM, pH5 • Phosphate buffer 10 mM/TFE, pH7 (1:1) • TFE (trifluoroethanol)
Conformational studies based on circular dichroism were performed under different conditions, such as: • 10 mM phosphate buffer, pH7 • 10mM phosphate buffer/TFE (1:1) • TFE (trifluoroethanol)

P. viticola = type: in vivo, Plasmopara viticola (Berk. et Curt.) Berl. and De Toni; conditions: grapevine (Vitis vinifera cv. Pinot noir) leaf discs; mean ± standard deviation vs untreated control; concentration not given
[2] = Chemical-physical properties (isoelectric point, net charge, solubility in water); type: physicochemical; conditions: for net charge: at pH 7
[3] = tested on: human kidney proximal tubular cells (HKC-8)
[4] = tested on: Agrobacterium tumefaciens GV3101; test: Specificity: growth in liquid culture (OD620); type: cell-based; conditions: 200 µM; LB medium; measured hourly up to 5 h
[5] = pH 7-TFE: phosphate buffer 10 mM/TFE (1:1)

## CC(C)C[C@@H]1NC(=O)[C@H](CCCNC(=N)N)NC(=O)CNC(=O)CCNC(=O)[C@H](C(C)C)NC(=O)[C@H](CCCNC(=N)N)NC(=O)[C@H](CC(C)C)NC(=O)[C@H](Cc2c[nH]c3ccccc23)NC(=O)[C@H](CCCNC(=N)N)NC1=O [CP32, βA-G-R-L-R-W-L-R-V] (cyclo(GRLRWLRV[βAla]))
P. capsici
  P. capsici (PIC - %): 89.25 ± 7.35 (b) %
P. ultimum
  P. ultimum (IPP - %): 85% and 85.42 ± 7.28 (b) %
[1]; 10 mM phosphate buffer, pH 7
  Disordered (%): 43%
  Helixes (%): 5%
  Sheets (%): 34%
  Turns (%): 18%
[1]; TFE (trifluoroethanol)
  Disordered (%): 47%
  Helixes (%): 6%
  Sheets (%): 29%
  Turns (%): 18%
[1]; [5]
  Disordered (%): 44%
  Helixes (%): 5%
  Sheets (%): 33%
  Turns (%): 18%
P. viticola
  P. viticola (IPP - %): 95% and 94.92 ± 6.45 (b) %
[2]
  isoelectric point: 14 pH
  net charge: +3
  solubility in water: good solubility in water
[3]
  cytotoxicity (cell viability, absorption at 570 nm): not toxic to human cells
[4]
  bacterial growth (OD620): no alteration in bacterial growth

## CSCC[C@@H]1NC(=O)[C@H](Cc2c[nH]c3ccccc23)NC(=O)[C@H](CCCNC(=N)N)NC(=O)CCNC(=O)[C@H](CCCNC(=N)N)NC(=O)[C@H](CCCNC(=N)N)NC(=O)[C@H](Cc2ccc(O)cc2)NC(=O)[C@H](C(C)C)NC(=O)[C@H](CC(C)C)NC1=O [CP20, βA-R-W-M-L-V-Y-R-R] (cyclo(LVYRR[βAla]RWM))
P. capsici
  P. capsici (PIC - %): 100% and 100 ± 0 (a) %
P. ultimum
  P. ultimum (IPP - %): 75% and 75.98 ± 4.54 (c) %
[1]; 10 mM phosphate buffer, pH 7
  Disordered (%): 32%
  Helixes (%): 6%
  Sheets (%): 40%
  Turns (%): 22%
[1]; MES buffer 10 mM, pH 6
  Disordered (%): 34%
  Helixes (%): 8%
  Sheets (%): 37%
  Turns (%): 21%
[1]; TFE (trifluoroethanol)
  Disordered (%): 33%
  Helixes (%): 10%
  Sheets (%): 35%
  Turns (%): 22%
[1]; acetate buffer 10 mM, pH 5
  Disordered (%): 31%
  Helixes (%): 7%
  Sheets (%): 39%
  Turns (%): 23%
[1]; [5]
  Disordered (%): 34%
  Helixes (%): 8%
  Sheets (%): 36%
  Turns (%): 22%
P. viticola
  P. viticola (IPP - %): 89.93 ± 11.69 (b) %
[2]
  isoelectric point: 12.4 pH
  net charge: +3
  solubility in water: good solubility in water
[3]
  cytotoxicity (cell viability, absorption at 570 nm): not toxic to human cells
[4]
  bacterial growth (OD620): no alteration in bacterial growth
